What was measured:
blackgrass = assay: Test B pre/postemergence blackgrass; format: in vivo, Alopecurus myosuroides
Summary of the method: (§1)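 Test chemicals in a non-phytotoxic solvent mixture with surfactant were sprayed preemergence onto planted seeds and postemergence onto plants 2 to 18 cm tall (1- to 4-leaf stage). After twelve to sixteen days in a greenhouse, injury was visually rated against untreated controls from 0 (no effect) to 10 (complete control).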

surinam grass = assay: Test B pre/postemergence surinam grass; format: in vivo, Brachiaria decumbens
Summary of the method: as §1

purple nutsedge = assay: Test B pre/postemergence purple nutsedge; format: in vivo, Cyperus rotundus
Summary of the method: as §1

velvetleaf = assay: Test B pre/postemergence velvetleaf; format: in vivo, Abutilon theophrasti; settings: for Plant response rating, Velvetleaf: Rate 250 g/ha
Summary of the method: as §1

bamyardgrass = assay: Test B flood test barnyardgrass; format: in vivo, Echinochloa crus-galli
Summary of the method: (§2)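 Plants were grown to the 2-leaf stage before treatment with test chemical, then held in a greenhouse for twelve to sixteen days. Injury was visually rated against untreated controls on a 0–10 scale, where 0 is no effect and 10 is complete control.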

soybean = assay: Test B pre/postemergence soybean; format: in vivo, Glycine max
Summary of the method: as §1

wheat = assay: Test B pre/postemergence wheat; format: in vivo, Triticum aestivum; settings: for Plant response rating, Wheat: Rate 250 g/ha
Summary of the method: as §1

duck salad = assay: Test B flood test duck salad; format: in vivo, Heteranthera limosa
Summary of the method: as §2

wild oat = assay: Test B pre/postemergence wild oat; format: in vivo, Avena fatua; settings: for Plant response rating, Wild oats: Rate 250 g/ha
Summary of the method: as §1

bedstraw = assay: Test B pre/postemergence bedstraw; format: in vivo, Galium aparine
Summary of the method: as §1

sugar beet = assay: Test B pre/postemergence sugar beet; format: in vivo, Beta vulgaris; settings: for Plant response rating, Sugarbeets: Rate 250 g/ha
Summary of the method: as §1

rice = assay: Test B flood test rice; format: in vivo, Oryza sativa
Summary of the method: as §2

corn = assay: Test B pre/postemergence corn; format: in vivo, Zea mays
Summary of the method: as §1

smallflower flatsedge = assay: Test B flood test smallflower flatsedge; format: in vivo, Cyperus difformis
Summary of the method: as §2

cocklebur = assay: Test B pre/postemergence cocklebur; format: in vivo, Xanthium strumarium
Summary of the method: as §1

crabgrass = assay: Test B pre/postemergence crabgrass; format: in vivo, Digitaria sanguinalis
Summary of the method: as §1

[1] = Postemergence, Rate 125 g/ha, scale of 0 to 10 where 0 is no effect and 10 is complete control
[2] = Postemergence, Rate 250 g/ha, scale 0 to 10, 0 no effect, 10 complete control
[3] = Preemergence, Rate 62 g/ha, scale 0 to 10 (0 no effect, 10 complete control)
[4] = Preemergence, Rate 125 g/ha, scale 0 to 10 (0 no effect, 10 complete control)
[5] = Preemergence, Rate 250 g/ha, scale of 0 to 10 where 0 is no effect and 10 is complete control
[6] = Preemergence, Rate 500 g/ha, scale 0 to 10 (0 no effect, 10 complete control)
[7] = Rate 62 g/ha, Postemergence, scale of 0 to 10 where 0 is no effect and 10 is complete control
[8] = Rate 500 g/ha, Postemergence, scale 0 to 10, 0 no effect, 10 complete control
[9] = Postemergence, Rate 62 g/ha, scale 0 to 10, 0 is no effect, 10 is complete control
[10] = Rate 125 g/ha, Postemergence, scale 0 to 10, 0 no effect, 10 complete control
[11] = Preemergence, Rate 125 g/ha, 0 is no effect, 10 is complete control
[12] = Preemergence, scale of 0 to 10 where 0 is no effect and 10 is complete control
[13] = Postemergence, scale 0 to 10, 0 is no effect, 10 is complete control
[14] = Rate 250 g/ha, headed Pre-emergence (flood test species), scale 0 to 10 (0 no effect, 10 complete control)
[15] = Rate 500 g/ha, headed Pre-emergence (flood test species), scale 0 to 10 (0 no effect, 10 complete control)
[16] = Rate 500 g/ha, listed under Postemergence (flood test species), scale 0 to 10, 0 no effect, 10 complete control
[17] = Rate 1000 g/ha, Pre-emergence (as headed), scale 0 to 10
[18] = flood test, listed under Postemergence, Rate 250 g/ha, scale 0 to 10, 0 no effect, 10 complete control
[19] = Postemergence (flood test species), Rate 125 g/ha, scale of 0 to 10 where 0 is no effect and 10 is complete control
[20] = Rate 62 g/ha, Postemergence section, flood test species, scale of 0 to 10 where 0 is no effect and 10 is complete control
[21] = Rate 2000 g/ha, Pre-emergence (as headed), scale 0 to 10
[22] = Rate 250 g/ha, Postemergence (flood test), scale 0 to 10, 0 is no effect, 10 is complete control

With CC(C)N(C(=O)n1oc(=O)n(C(C)C)c1=O)c1ccccc1 [Compound 113] the “Blackgrass plant response rating” value (blackgrass; [1]) was 8, the “Blackgrass plant response rating” value (blackgrass; [2]) was 8 and the “Blackgrass plant response rating” value (blackgrass; [3]) was 8. The “Plant response rating, Blackgrass” value (blackgrass; [4]) was 9, the “Plant response rating, Blackgrass” value (blackgrass; [5]) was 10 and the “Blackgrass plant response rating” value (blackgrass; [6]) was 10. The “Blackgrass plant response rating” value (blackgrass; [7]) was 8, the “Blackgrass plant response rating” value (blackgrass; [8]) was 8 and the “B. signalgrass plant response rating” value (surinam grass; [9]) was 4. The “B. signalgrass plant response rating” value (surinam grass; [2]) was 8, the “B. signalgrass plant response rating” value (surinam grass; [3]) was 7 and the “Plant response rating, B. signalgrass” value (surinam grass; [4]) was 9. For the same compound, the “Plant response rating, B. signalgrass” value (surinam grass; [5]) was 10, the “B. signalgrass plant response rating” value (surinam grass; [6]) was 10 and the “B. signalgrass plant response rating” value (surinam grass; [10]) was 7. The “B. signalgrass plant response rating” value (surinam grass; Rate 500 g/ha, Postemergence, scale of 0 to 10 where 0 is no effect and 10 is complete control) was 8, the “Nutsedge plant response rating” value (purple nutsedge; [1]) was 0 and the “Nutsedge plant response rating” value (purple nutsedge; [2]) was 0. The “Nutsedge plant response rating” value (purple nutsedge; [3]) was 0, the “Plant response rating, Nutsedge” value (purple nutsedge; [4]) was 0 and the “Plant response rating, Nutsedge” value (purple nutsedge; [5]) was 0. The “Nutsedge plant response rating” value (purple nutsedge; [6]) was 0, the “Nutsedge plant response rating” value (purple nutsedge; [7]) was 0 and the “Nutsedge plant response rating” value (purple nutsedge; [8]) was 2. The “Velvetleaf plant response rating” value (velvetleaf; [1]) was 1, the “Velvetleaf plant response rating” value (velvetleaf; [3]) was 6 and the “Velvetleaf plant response rating (0 to 10 scale)” value (velvetleaf; [11]) was 7. The “Plant response rating, Velvetleaf” value (velvetleaf; [12]) was 8, the “Velvetleaf plant response rating” value (velvetleaf; [6]) was 8 and the “Velvetleaf plant response rating” value (velvetleaf; [7]) was 0. For the same compound, the “Plant response rating, Velvetleaf” value (velvetleaf; [13]) was 7, the “Velvetleaf plant response rating” value (velvetleaf; [8]) was 8 and the “Barnyardgrass plant response rating” value (bamyardgrass; [9]) was 0. The “Barnyardgrass plant response rating” value (bamyardgrass; Rate 125 g/ha, Postemergence section (flood test species), scale 0 to 10, 0 no effect, 10 complete control) was 0, the “Barnyardgrass plant response rating” value (bamyardgrass; [14]) was 0 and the “Plant response rating, Barnyardgrass” value (bamyardgrass; [15]) was 0. The “Barnyardgrass plant response rating” value (bamyardgrass; [16]) was 0, the “Barnyardgrass plant response rating” value (bamyardgrass; [17]) was 0 and the “Barnyardgrass plant response rating” value (bamyardgrass; Rate 2000 g/ha, Pre-emergence (as headed), scale 0 to 10, 0 no effect, 10 complete control) was 9. For the same compound, the “Barnyardgrass plant response rating” value (bamyardgrass; [18]) was 0, the “Soybean plant response rating” value (soybean; [1]) was 6 and the “Soybean plant response rating” value (soybean; [3]) was 3. The “Plant response rating, Soybean” value (soybean; [4]) was 8, the “Plant response rating, Soybean” value (soybean; [5]) was 9 and the “Soybean plant response rating” value (soybean; [6]) was 9. For the same compound, the “Soybean plant response rating” value (soybean; [7]) was 6, the “Plant response rating, Soybean” value (soybean; Rate 250 g/ha, Postemergence, scale 0 to 10, 0 is no effect, 10 is complete control) was 7 and the “Soybean plant response rating” value (soybean; [8]) was 7. For the same compound, the “Wheat plant response rating” value (wheat; [1]) was 3, the “Wheat plant response rating” value (wheat; [3]) was 2 and the “Wheat plant response rating (0 to 10 scale)” value (wheat; [11]) was 4. The “Plant response rating, Wheat” value (wheat; [12]) was 7, the “Wheat plant response rating” value (wheat; [6]) was 8 and the “Wheat plant response rating” value (wheat; [7]) was 1. The “Plant response rating, Wheat” value (wheat; [13]) was 4, the “Wheat plant response rating” value (wheat; [8]) was 6 and the “Ducksalad plant response rating” value (duck salad; [19]) was 0. For the same compound, the “Ducksalad plant response rating” value (duck salad; [20]) was 0, the “Ducksalad plant response rating” value (duck salad; [14]) was 0 and the “Plant response rating, Ducksalad” value (duck salad; [15]) was 0. The “Ducksalad plant response rating” value (duck salad; [16]) was 0, the “Ducksalad plant response rating” value (duck salad; [17]) was 1 and the “Ducksalad plant response rating” value (duck salad; [21]) was 8. The “Ducksalad plant response rating” value (duck salad; [18]) was 0, the “Wild oats plant response rating” value (wild oat; [1]) was 2 and the “Wild oats plant response rating” value (wild oat; [3]) was 6. The “Wild oats plant response rating (0 to 10 scale)” value (wild oat; [11]) was 10, the “Plant response rating, Wild oats” value (wild oat; [12]) was 10 and the “Wild oats plant response rating” value (wild oat; [6]) was 10. The “Wild oats plant response rating” value (wild oat; [7]) was 1, the “Plant response rating, Wild oats” value (wild oat; [13]) was 6 and the “Wild oats plant response rating” value (wild oat; [8]) was 6. The “Bedstraw plant response rating” value (bedstraw; [9]) was 1, the “Bedstraw plant response rating” value (bedstraw; [2]) was 7 and the “Bedstraw plant response rating” value (bedstraw; [3]) was 4. The “Plant response rating, Bedstraw” value (bedstraw; [4]) was 6, the “Plant response rating, Bedstraw” value (bedstraw; [5]) was 7 and the “Bedstraw plant response rating” value (bedstraw; [6]) was 8. For the same compound, the “Bedstraw plant response rating” value (bedstraw; [10]) was 4, the “Sugarbeets plant response rating” value (sugar beet; [1]) was 4 and the “Sugarbeets plant response rating” value (sugar beet; [3]) was 7. The “Sugarbeets plant response rating (0 to 10 scale)” value (sugar beet; [11]) was 8, the “Plant response rating, Sugarbeets” value (sugar beet; [12]) was 9 and the “Sugarbeets plant response rating” value (sugar beet; [6]) was 10. The “Sugarbeets plant response rating” value (sugar beet; [7]) was 4, the “Plant response rating, Sugarbeets” value (sugar beet; [13]) was 5 and the “Sugarbeets plant response rating” value (sugar beet; [8]) was 6. For the same compound, the “Rice plant response rating” value (rice; [19]) was 0, the “Rice plant response rating” value (rice; [20]) was 0 and the “Plant response rating, Rice” value (rice; [22]) was 0. The “Rice plant response rating” value (rice; [14]) was 0, the “Plant response rating, Rice” value (rice; [15]) was 0 and the “Rice plant response rating” value (rice; [16]) was 0. The “Rice plant response rating” value (rice; [17]) was 0, the “Rice plant response rating” value (rice; [21]) was 7 and the “Corn plant response rating” value (corn; [1]) was 1. For the same compound, the “Corn plant response rating” value (corn; [2]) was 5, the “Corn plant response rating” value (corn; [3]) was 3 and the “Plant response rating, Corn” value (corn; [4]) was 4. The “Plant response rating, Corn” value (corn; [5]) was 8, the “Corn plant response rating” value (corn; [6]) was 10 and the “Corn plant response rating” value (corn; [7]) was 0. For the same compound, the “Corn plant response rating” value (corn; [8]) was 6, the “S. Flatsedge plant response rating” value (smallflower flatsedge; [19]) was 0 and the “S. Flatsedge plant response rating” value (smallflower flatsedge; Pre-emergence, Rate 1000 g/ha, scale 0 to 10 (0 no effect, 10 complete control)) was 0. For the same compound, the “S. Flatsedge plant response rating” value (smallflower flatsedge; [20]) was 0, the “Plant response rating, S. Flatsedge” value (smallflower flatsedge; [22]) was 0 and the “S. Flatsedge plant response rating” value (smallflower flatsedge; [14]) was 0. For the same compound, the “Plant response rating, S. Flatsedge” value (smallflower flatsedge; [15]) was 0, the “S. Flatsedge plant response rating” value (smallflower flatsedge; [16]) was 0 and the “S. Flatsedge plant response rating” value (smallflower flatsedge; [21]) was 9. The “Cocklebur plant response rating” value (cocklebur; [1]) was 1, the “Cocklebur plant response rating” value (cocklebur; [2]) was 1 and the “Cocklebur plant response rating” value (cocklebur; [3]) was 0. For the same compound, the “Plant response rating, Cocklebur” value (cocklebur; [4]) was 1, the “Plant response rating, Cocklebur” value (cocklebur; [5]) was 3 and the “Cocklebur plant response rating” value (cocklebur; [6]) was 3. The “Cocklebur plant response rating” value (cocklebur; [7]) was 1, the “Cocklebur plant response rating” value (cocklebur; [8]) was 4 and the “Crabgrass plant response rating” value (crabgrass; [1]) was 9. For the same compound, the “Crabgrass plant response rating” value (crabgrass; [2]) was 9, the “Crabgrass plant response rating” value (crabgrass; [3]) was 7 and the “Plant response rating, Crabgrass” value (crabgrass; [4]) was 10. The “Plant response rating, Crabgrass” value (crabgrass; [5]) was 10, the “Crabgrass plant response rating” value (crabgrass; [6]) was 10 and the “Crabgrass plant response rating” value (crabgrass; [7]) was 9. For the same compound, the “Crabgrass plant response rating” value (crabgrass; [8]) was 9.

Source: patent US6737383B1, “Herbicidal oxadiazolidines” (priority 1999, dated 2004)
